Results reported in PubChem BioAssay (NCI).
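Results reflect a 48-hour exposure of cells in 96-well plates to compound at five concentrations. GI50: concentration for 50% inhibition of growth. TGI marks complete inhibition of growth.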

Tests used:
Assay in all cases: NCI-60 cell line screen, 48 h
HCT-116 colon = system: HCT-116 colon
HOP-62 NSCLC = system: HOP-62 NSCLC
OVCAR-4 ovarian = system: OVCAR-4 ovarian
SF-268 CNS = system: SF-268 CNS
SK-MEL-2 melanoma = system: SK-MEL-2 melanoma
SW-620 colon = system: SW-620 colon
HT29 colon = system: HT29 colon
IGROV1 ovarian = system: IGROV1 ovarian
NCI-H460 lung = system: NCI-H460 lung
UACC-62 melanoma = system: UACC-62 melanoma

SMILES	TGI (HCT-116 colon)	TGI (HOP-62 NSCLC)	TGI (OVCAR-4 ovarian)	TGI (SF-268 CNS)	TGI (SK-MEL-2 melanoma)	TGI (SW-620 colon)	TGI (HT29 colon)	TGI (IGROV1 ovarian)	TGI (NCI-H460 lung)	GI50 (HOP-62 NSCLC)	TGI (UACC-62 melanoma)
COc1cc(/C=C2\C(=O)N(C(=O)Cc3ccccc3)N=C2C)ccc1O	> 100 µM	> 100 µM	> 100 µM	> 100 µM	> 100 µM	> 100 µM					
COc1cc2c(cc1OC)C(N(C)C)C(c1ccccc1)=C2Cl (stereo not given)		98.8 µM	65 µM		36 µM	29.8 µM	36.4 µM	47.5 µM	39.2 µM		
CN(C)c1nc(=NCc2ccncc2)ss1	40.7 µM	> 100 µM	39.2 µM	> 100 µM		50.7 µM	38.5 µM	> 100 µM	> 100 µM	> 100 µM	> 48.1 µM
COc1cc2c(cc1OCCCCOc1cc(-c3ccc(F)cc3)nc(C)n1)N=C[C@@H]1CCCN1C2=O	8.59 µM	3.43 µM	2.3 µM	16.3 µM	2.31 µM	4.85 µM	3.92 µM	12.2 µM			1.28 µM
N#Cc1c(-c2ccccc2)/c(=C\Nc2ccc(Cl)cc2)c(=O)n2c1nc1ccccc12	19.6 µM	> 100 µM	> 100 µM	> 100 µM	> 100 µM	> 100 µM		> 100 µM	> 100 µM		
CC(C)(C)C1=Cc2cc3cc(C(C)(C)C)[nH]c(=O)c3cc2S(=O)(=O)N1	42.8 µM	63 µM	> 100 µM	95.1 µM	38.2 µM	44.8 µM	41.4 µM		> 100 µM		42 µM
Nc1nn2c(C(Br)Br)cc(C(Br)Br)nc2c1[N+](=O)[O-]	2.23 µM			4.8 µM		0.77 µM	3.28 µM	3.38 µM	7.5 µM		4.06 µM
CN(C)c1ccc(-c2c(C#N)c(S)n(NS(=O)(=O)c3ccccc3)c(=O)c2C#N)cc1	> 100 µM		74.2 µM		> 100 µM	> 100 µM		73.5 µM			> 100 µM
Cc1cn2c(/C=C3/C(=O)Nc4cccc(Cl)c43)c(Cl)nc2s1	> 100 µM	39.1 µM	> 100 µM	> 100 µM		> 100 µM	> 100 µM	> 100 µM			> 100 µM
CC(=O)OC[C@]1(C(=O)C(O)c2ccoc2)[C@H](C)CC[C@@]23COC(=O)C2=CCC[C@@H]31 (stereo not given in full)	> 10 µM		> 10 µM	> 10 µM	> 10 µM	> 10 µM	> 10 µM	> 10 µM	> 10 µM		> 10 µM
CCNC(=O)Nc1ccccn1	> 100 µM	> 100 µM	> 100 µM	> 100 µM		> 100 µM	> 100 µM	> 100 µM	> 100 µM		> 100 µM
O=C(CN1CCCCC1)CC(O)(C(F)(F)F)C(F)(F)F	> 100 µM		> 100 µM		> 100 µM	> 100 µM	> 100 µM	> 100 µM	> 100 µM		> 100 µM
CC(C)(C)N=c1n(C(C)(C)C)oc(=O)n1C(C)(C)C	> 100 µM	> 100 µM	> 100 µM		> 100 µM	> 100 µM	> 100 µM	> 100 µM	> 100 µM		> 100 µM
